{"source": "patent US20080194485A1", "about": "“Detection and Use of Prolylcarboxypeptidase” (YALE UNIVERSITY, priority 2004, published 2008)", "key": {"[1]": {"tested_on": "fasted rats", "test": "ICV injection of α-MSH and α-MSH1-12, food intake in fasted rats", "format": "in vivo, rat", "conditions": "2.5 μg ICV, 12 hour-fasted rats", "experimental": "Eighteen male rats (200-250 gr) were used in this study. Animals with a third ventricle cannulation were purchased from Taconic Farms Inc. Rats were single caged and divided in 3 groups: animals injected with saline, animals injected with 2.5 μg of […]-MSH and animals injected with 2.5 μg of α-MSH1-12. All the rats were fasted overnight. The next morning, the animals were injected and a known amount of food was given and measured after 2 hours from re-feeding (Abbott et al., 2000)."}, "[2]": {"target": "T1, rPRCP51 (recombinant PRCP) (Homo sapiens, UniProt P42785)", "T1 construct": "Human PRCP cDNA, lacking the first 391 base pairs of PRCP (Prcpnt391-1845); BiP secretion signal (from vector pMT/BiP/V5-His C) (N); His tag (from vector pMT/BiP/V5-His C) (C); made in house; host or cells: Schneider 2 (Drosophila S2) cells", "T1 sequence (P42785 46-496)": "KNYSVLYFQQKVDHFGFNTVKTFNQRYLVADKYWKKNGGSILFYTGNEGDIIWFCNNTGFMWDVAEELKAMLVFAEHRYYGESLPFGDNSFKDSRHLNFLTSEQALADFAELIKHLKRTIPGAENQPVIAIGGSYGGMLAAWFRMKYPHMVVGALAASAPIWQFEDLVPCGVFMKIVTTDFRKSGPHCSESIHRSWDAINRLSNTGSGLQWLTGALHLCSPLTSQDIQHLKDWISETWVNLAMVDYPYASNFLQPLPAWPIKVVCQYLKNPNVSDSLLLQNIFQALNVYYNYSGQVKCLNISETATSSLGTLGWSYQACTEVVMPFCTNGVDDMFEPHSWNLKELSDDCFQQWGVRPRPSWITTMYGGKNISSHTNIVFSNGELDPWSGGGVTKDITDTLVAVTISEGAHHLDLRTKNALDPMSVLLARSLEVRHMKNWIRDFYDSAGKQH", "test": "Substrate inhibition assay: rPRCP51-induced prekallikrein (PK) activation", "format": "biochemical", "conditions": "at 1 mM peptide", "experimental": "Panel A: Increasing concentration of α-MSH, MSH1-12, or AgII (0.001-1 mM) were incubated with 8 nM of recombinant PRCP51 at 37° C. in microtiter plate cuvette wells with preabsorbed HK and containing 20 nM PK. The liberation of paranitroanilide (pNA) from the S2302 by the formed plasma kallikrein in the presence of the peptide was measured at 405 nm and the results are expressed as residual formed plasma kallikrein activity. The data represent the mean±SEM of three independent measurements.\npMT/BiP/V5-His C was employed as the basal plasmid in vector construction. […]\nSamples containing 8 nM rPRCP51 in […] total volume were prepared in the absence or presence of increasing concentration of peptide α-MSH, MSH1-12 or AgII in HEPES carbonate buffer (137 mM NaCl, 3 mM KCl, 12 mM NaHCO3, 14.7 mM HEPES, 5.5 mM dextrose and 0.1% gelatin, pH 7.1 containing 10 mM CaCl2, and 1 mM MgCl2) in microtiter plate cuvette wells with previously absorbed HK at […] and with 20 nM PK at 37° C. The ability of purified rPRCP51 to activate PK bound to HK on plastic microtiter plates was determined in the absence or presence of increasing concentrations (0.001-1 mM) of the peptide (McCarthy et al., 2003; Shariat-Madar et al., 2002). […] The rate of hydrolysis was recorded at different concentrations of peptide and expressed as percent kallikrein activity remaining. […]"}, "[3]": {"tested_on": "POMC-GFP neurons", "test": "Whole cell patch clamp electrophysiology of POMC-GFP neurons in hypothalamic slices", "format": "cell-based, mouse", "conditions": "bath application, current clamp", "experimental": "Coronal hypothalamic brain slices (˜300 μm) were prepared with a Vibratome from POMC-GFP transgenic mice. Slices were maintained at room temperature in artificial cerebrospinal fluid saturated with 95% O2 and 5% CO2. Slices were equilibrated in the recording chamber for 1 hr at 35° C. in ACSF saturated with 95% O2 and 5% CO2 prior to recordings. ACSF contains (mM): NaCl, 124; KCl, 3; CaCl2, 2; MgCl2, 2; NaH2PO4, 1.23; NaHCO3, 26; glucose, 10; pH 7.4 with NaOH. An upright fluorescence/infrared microscope with long working distance objectives (Olympus BX51WI) and fluorescence filter sets for GFP (Chroma Technology Corp) was used. Fluorescent POMC-GFP neurons were selected and a patch pipette (4-6 mega Ohm resistance) was advanced onto the surface of the neuron by a micromanipulator (Sutter 225). The pipette solution contains (in mM) K gluconate, 128; HEPES, 10; EGTA, 1; KCl, 10; MgCl2, 1; CaCl2, 0.3; (Mg)-ATP, 5; (Na)GTP, 0.3, PH.7.4. Whole cell patch clamp experiments were performed with a Multiclamp 700A amplifier (Axon Instruments, Inc). Whole cell current clamp was used to monitor the effect of α-MSH on membrane potential of recorded neurons held at resting membrane potential. […] Eletrophysiological data were analyzed with Axograph 4.9 (Axon Instruments), plotted with Igor Pro software (WaveMetrics, Lake Oswego, Oreg., USA) and presented as the mean±SEM. […]"}, "[4]": {"tested_on": "rats", "test": "ICV injection of B-PP, food intake in rats", "format": "in vivo, rat", "experimental": "Twelve male rats (200-250 gr) were used in this study. Animals with a third ventricle cannulation were purchased from Taconic Farms Inc. […] A known amount of food was given to the animals and weighted every 24 hours."}, "[5]": {"tested_on": "ob/ob mice", "test": "IP injection of B-PP, food intake in ob/ob mice", "format": "in vivo, mouse", "conditions": "400 μg systemically (ip)", "experimental": "For this study 10 ob/ob mice were used. Mice were injected at the beginning of the dark phase intraperitoneally with 2 doses of […] of B-PP every 24 hours and food intake was measured before each injection and every 24 hours after the last administration. Control mice were injected at the same times and with same volume of vehicle."}, "[6]": {"tested_on": "ob/ob mice", "test": "IP injection of Z-PP, food intake in ob/ob mice", "format": "in vivo, mouse", "experimental": "For this study 10 ob/ob mice were used. Mice were injected at the beginning of the dark phase intraperitoneally with 2 doses of 5 mg Z-PP every 12 hours and food intake was measured every 12 hours after the last injection. Control mice were injected at the same times and with the same volume of vehicle. Note that for Z-PP doses lower than 5 mg were ineffective in reducing food intake."}, "[7]": {"tested_on": "wild type mice", "test": "IP administration of α-MSH and MTII, food intake in wild type mice", "format": "in vivo, mouse", "conditions": "200 nmol ip", "experimental": "Wild type and PRCP KO mice were used in this study. Animals were single caged and injected with saline at the beginning of the dark phase for 3 days. For each mouse, food intake was measured at 4, 12 and 24 hours after the injection. After 3 days, animals were divided in 6 groups: 1) wild type mice receiving 200 nmol MTII in saline; 2) wild type mice receiving 200 nmol α-MSH in saline; 3) wild type mice receiving saline; 4) PRCP KO mice receiving 200 nmol of MTII in saline; 5) PRCP KO mice receiving 200 nmol α-MSH; 6) PRCP KO mice receiving saline."}}, "note": "Residues, ends and D or L forms follow the SMILES beside them. *: point of attachment. Cbz = O=C(OCc1ccccc1)*", "data": [{"compound": "Ac-STSMEHFRWGKP-COOH (Ac-STSMEHFRWGKP-OH) [α-MSH1-12, putative product of PRCP hydrolysis of α-MSH, lacks the C-terminal Val]", "values": [{"measurement": "effect on food intake compared to saline controls", "setting": "[1]", "result": "did not significantly affect food intake"}, {"measurement": "food intake", "setting": "[1]; 2 hours from re-feeding", "result": "8.89 ± 0.90", "unit": "g"}, {"measurement": "inhibition of rPRCP51 activity", "setting": "[2]", "result": "about 20%"}, {"measurement": "hyperpolarization of POMC membrane potential", "setting": "[3]", "result": "undetectable"}]}, {"compound": "t-butyl carbamate (BOC)-prolyl prolinal [B-PP]", "values": [{"measurement": "food intake, percent", "setting": "[4]; after 24 hours from the administration, controls 94.91%", "result": 36.7, "unit": "%"}, {"measurement": "food intake, percent", "setting": "[4]; after 48 hours from the administration, controls 97.67%", "result": 89.24, "unit": "%"}, {"measurement": "effect on body weight gain", "setting": "[5]", "result": "suppressed"}, {"measurement": "effect on food intake", "setting": "[5]", "result": "suppressed"}]}, {"compound": "O=C[C@@H]1CCCN1C(=O)[C@@H]1CCCN1C(=O)OCc1ccccc1", "note": "[Z-PP, N-benzyloxycarbonyl-prolyl-prolinal] (Cbz-Pro-Pro-aldehyde)", "values": [{"measurement": "food intake compared to vehicle controls", "setting": "[6]; 5 mg ip, after 24 hours from the last injection", "result": "no difference"}, {"measurement": "effect on food intake", "setting": "[6]; 5 mg ip, ob/ob mice", "result": "suppress food intake, but with lower efficacy than that of B-PP"}, {"measurement": "effect in reducing food intake", "setting": "[6]; doses lower than 5 mg ip, ob/ob mice", "result": "ineffective"}]}, {"compound": "Ac-Nle^4-c[Asp^5, D-Phe^7, Lys^10] α-MSH-(4-10)-NH2 [MTII]", "values": [{"measurement": "food intake compared to 100% controls", "setting": "[7]", "result": 35.5, "unit": "%"}]}]}
